Publication PMC11219871, “Epigenetic-based differentiation therapy for Acute Myeloid Leukemia” (Nature Communications, 2024)
pIC50: −log10 of the molar value. Read-outs that look alike come from different tables or passages of the source.

Assays:
[1] = Pharmacokinetic study in plasma samples; format: in vivo, mouse; conditions: 10 mg/kg i.p.; for CL/F: read-out: Norm. Cl/F (converted)
Protocol: Compounds CM-444 and CM-1758 were measured in plasma using an Acquity UPLC system (Waters, Manchester, UK) coupled to an Xevo-TQ MS triple-quadrupole mass spectrometer with ESI source.
Compound solutions were prepared by dissolving the solid in dimethyl sulfoxide (DMSO) and this solution was made up to a final volume by the addition of a mixture of Tween 20 and 0.9% NaCl (1/1/8, v-v:v, DMSO/Tween 20/saline). For the pharmacokinetic experiments, a drug dosage of 10 mg/kg was administered as a single intraperitoneal injection to RAG-2 mice. Blood was collected at predetermined post-injection times (15 min, and 1, 2, 4, 8 and 24 h) into EDTA-containing tubes, and plasma was obtained via centrifugation (4 °C, 657 g, 5 min) and stored at −80 °C until analysis.
Chromatographic separation was performed by gradient elution at 0.6 mL/min using an Acquity UPLC BEH C18 column (50 × 2.1 mm, 1.7 µm; Waters). The mobile phase consisted of A: water with 0.1% formic acid, B: methanol with 0.1% formic acid. The autosampler temperature was set at 10 °C and the column temperature at 40 °C. For detection and quantification, the ESI operated in the positive mode was set up for multiple reaction monitoring. The collision gas used was ultra-pure argon at a flow rate of 0.15 mL/min.
Quantification was achieved by external calibration using matrix-matched standards. Concentrations were calculated using a weighted least-squares linear regression (W = 1/x). Calibration standards were prepared by adding the appropriate volume of diluted compound solution (made in a mixture of methanol and water, 50:50, v-v) to aliquots of 20 µL of blank plasma. The calibration standard and sample preparation were as follows: 3% formic acid in methanol was added to precipitate the proteins. The mixture was then vortex-agitated for 1 min and centrifuged at 16,522 g for 10 min at 4 °C. A 5-µL aliquot of the supernatant solution was injected into the LC-MS/MS system for analysis. Frozen plasma samples were thawed at room temperature, vortex mixed thoroughly and subjected to the above-described extraction procedure.
The pharmacokinetic parameters were obtained by fitting the blood concentration-time data to a non-compartmental model with WinNonlin software (Pharsight, Mountain View, CA).

HDAC8 = molecular target: T1, HDAC8 (Homo sapiens, UniProt Q9BY41); assay: HDAC assay (Eurofins); format: biochemical
T1 construct: purchased Eurofins (contracted assay service)
T1 sequence (Q9BY41 1-377): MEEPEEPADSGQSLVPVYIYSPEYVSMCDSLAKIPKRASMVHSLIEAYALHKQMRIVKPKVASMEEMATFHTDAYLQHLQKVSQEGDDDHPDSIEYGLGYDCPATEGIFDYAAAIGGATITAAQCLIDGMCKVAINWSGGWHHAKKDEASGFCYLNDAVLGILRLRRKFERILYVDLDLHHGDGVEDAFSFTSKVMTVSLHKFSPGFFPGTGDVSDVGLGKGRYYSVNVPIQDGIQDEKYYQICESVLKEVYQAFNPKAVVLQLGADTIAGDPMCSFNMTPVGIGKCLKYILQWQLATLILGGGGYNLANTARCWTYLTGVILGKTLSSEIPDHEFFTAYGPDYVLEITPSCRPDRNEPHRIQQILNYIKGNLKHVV

BAZ2B = molecular target: T2, BAZ2B (Homo sapiens, UniProt Q9UIF8); assay: Epigenetic panel (BPS Bioscience); format: binding
T2 construct: purchased BPS Bioscience; Eurofins (HDAC4, 5, 7-11)
Source text: (§1) The selectivity of CM-444 and CM-1758 against other epigenetic targets, including histone demethylase (JMJD2A, JMJD2B, JMJD2C, JMJD2D, JMJD2E, JMJD3, JMJD1A, LSD1, Jarid1A, Jarid1B, Jarid1C, FBXL10, FBXL11, JHDM1D, JMJD1B, PHF8, LSD2 and UTX); histone acetyltransferases (GCN5, P300); histone methyltransferases (G9a, GLP, MLL1, SET7/9, SUV39H1, SUV39H2, PRMT1, PRMT3, PRMT4, PRMT5, PRMT6, PRMT8, PRMT9, NSD1, NSD2, EZH1, EZH2, SETDB1, SETD2, SET8, SUV4-20H1, SMYD2, SMYD3, DOT1L, EZH2 (A677G), EZH2 (A677G), EZH2 (A738T), EZH2 (Y641S), EZH2 (P132S), EZH2 (Y641C), EZH2 (Y641F), EZH2 (Y641H), EZH2 (Y641N)); bromodomains (ATAD2B, ATAD2A, BRD1, BRD9, BPTF/FALZ, CeCR2, BRPF3, BRD3 (BD1 + BD2), BAZ2B, WDR9, TAF1 (BD2), TAF1L (BD2), TAF1L (BD1 + BD2), BRD2 (BD1), BRD2 (BD2), BRD2 (BD1 + BD2), BRD3 (BD1), BRD3 (BD2), BRD4 (BD1), BRD4 (BD2), BRD4 (BD1 + BD2), BRDT (BD1), BRDT (BD1 + BD2), CREBBP, SMARCA2A, SMARCA4/BRG1); DNA methyltranferases (DNMT1, DNMT3A/3L and DNMT3B/3L), and sirtuin histone deacetylases (SIRT1, SIRT2, SIRT3, SIRT5 and SIRT6), were determined by BPS Bioscience (http://www.bpsbioscience.com/index.ph). Binding experiments were performed in duplicate at a concentration of 10 μM.

SMARCA4/BRG1 = molecular target: T3, SMARCA4/BRG1 (Homo sapiens, UniProt P51532); assay: Epigenetic panel (BPS Bioscience); format: binding
T3 construct: purchased BPS Bioscience; Eurofins (HDAC4, 5, 7-11)
Source text: as §1

CeCR2 = molecular target: T4, CeCR2 (Homo sapiens, UniProt Q9BXF3); assay: Epigenetic panel (BPS Bioscience); format: binding
T4 construct: purchased BPS Bioscience (contracted assay service)
T4 sequence (Q9BXF3 whole entry): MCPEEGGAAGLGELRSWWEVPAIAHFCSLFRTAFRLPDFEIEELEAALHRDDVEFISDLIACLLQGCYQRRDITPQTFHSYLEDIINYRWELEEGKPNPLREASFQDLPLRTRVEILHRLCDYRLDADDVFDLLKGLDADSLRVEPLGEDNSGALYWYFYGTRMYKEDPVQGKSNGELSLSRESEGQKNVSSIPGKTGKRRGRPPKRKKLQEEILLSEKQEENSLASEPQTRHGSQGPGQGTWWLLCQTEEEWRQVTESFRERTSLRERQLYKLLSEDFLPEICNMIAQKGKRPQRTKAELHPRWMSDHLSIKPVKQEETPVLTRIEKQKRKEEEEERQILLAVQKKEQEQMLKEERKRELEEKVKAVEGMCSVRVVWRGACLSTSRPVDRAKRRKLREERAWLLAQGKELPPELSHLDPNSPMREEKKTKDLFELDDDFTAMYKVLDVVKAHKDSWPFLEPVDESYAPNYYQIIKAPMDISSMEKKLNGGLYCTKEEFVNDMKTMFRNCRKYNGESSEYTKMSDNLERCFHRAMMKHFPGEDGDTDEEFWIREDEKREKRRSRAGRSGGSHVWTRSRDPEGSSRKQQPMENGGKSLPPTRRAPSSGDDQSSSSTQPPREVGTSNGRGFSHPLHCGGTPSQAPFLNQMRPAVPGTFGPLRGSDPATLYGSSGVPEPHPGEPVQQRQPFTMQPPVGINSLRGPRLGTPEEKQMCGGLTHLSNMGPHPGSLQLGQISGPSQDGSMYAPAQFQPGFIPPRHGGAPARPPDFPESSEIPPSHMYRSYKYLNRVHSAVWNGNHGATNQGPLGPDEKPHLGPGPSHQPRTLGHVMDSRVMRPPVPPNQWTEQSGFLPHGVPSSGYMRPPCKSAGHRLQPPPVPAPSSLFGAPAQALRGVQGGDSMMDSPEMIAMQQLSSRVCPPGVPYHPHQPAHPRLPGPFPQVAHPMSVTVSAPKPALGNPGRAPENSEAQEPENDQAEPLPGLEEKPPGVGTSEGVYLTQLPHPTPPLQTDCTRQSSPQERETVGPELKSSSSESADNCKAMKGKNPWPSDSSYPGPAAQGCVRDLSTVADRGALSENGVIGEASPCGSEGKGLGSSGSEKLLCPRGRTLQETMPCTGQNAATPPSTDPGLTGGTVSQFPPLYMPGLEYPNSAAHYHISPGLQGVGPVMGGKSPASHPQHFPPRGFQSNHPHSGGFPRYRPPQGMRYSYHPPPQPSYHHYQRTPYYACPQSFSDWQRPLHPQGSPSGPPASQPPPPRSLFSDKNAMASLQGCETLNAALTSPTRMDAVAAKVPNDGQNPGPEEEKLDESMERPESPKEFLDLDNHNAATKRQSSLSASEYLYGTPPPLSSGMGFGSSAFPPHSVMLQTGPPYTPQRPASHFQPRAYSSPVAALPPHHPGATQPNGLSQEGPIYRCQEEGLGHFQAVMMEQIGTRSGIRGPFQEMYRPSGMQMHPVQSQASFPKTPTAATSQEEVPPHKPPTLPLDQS
Source text: as §1

CREBBP = molecular target: T5, CREBBP (Homo sapiens, UniProt Q92793); assay: Epigenetic panel (BPS Bioscience); format: binding
T5 construct: purchased BPS Bioscience; Eurofins (HDAC4, 5, 7-11)
Source text: as §1

HDAC9 = molecular target: T6, HDAC9 (Homo sapiens, UniProt Q9UKV0); assay: HDAC assay (Eurofins); format: biochemical
T6 construct: purchased Eurofins (contracted assay service)
T6 sequence (Q9UKV0 whole entry): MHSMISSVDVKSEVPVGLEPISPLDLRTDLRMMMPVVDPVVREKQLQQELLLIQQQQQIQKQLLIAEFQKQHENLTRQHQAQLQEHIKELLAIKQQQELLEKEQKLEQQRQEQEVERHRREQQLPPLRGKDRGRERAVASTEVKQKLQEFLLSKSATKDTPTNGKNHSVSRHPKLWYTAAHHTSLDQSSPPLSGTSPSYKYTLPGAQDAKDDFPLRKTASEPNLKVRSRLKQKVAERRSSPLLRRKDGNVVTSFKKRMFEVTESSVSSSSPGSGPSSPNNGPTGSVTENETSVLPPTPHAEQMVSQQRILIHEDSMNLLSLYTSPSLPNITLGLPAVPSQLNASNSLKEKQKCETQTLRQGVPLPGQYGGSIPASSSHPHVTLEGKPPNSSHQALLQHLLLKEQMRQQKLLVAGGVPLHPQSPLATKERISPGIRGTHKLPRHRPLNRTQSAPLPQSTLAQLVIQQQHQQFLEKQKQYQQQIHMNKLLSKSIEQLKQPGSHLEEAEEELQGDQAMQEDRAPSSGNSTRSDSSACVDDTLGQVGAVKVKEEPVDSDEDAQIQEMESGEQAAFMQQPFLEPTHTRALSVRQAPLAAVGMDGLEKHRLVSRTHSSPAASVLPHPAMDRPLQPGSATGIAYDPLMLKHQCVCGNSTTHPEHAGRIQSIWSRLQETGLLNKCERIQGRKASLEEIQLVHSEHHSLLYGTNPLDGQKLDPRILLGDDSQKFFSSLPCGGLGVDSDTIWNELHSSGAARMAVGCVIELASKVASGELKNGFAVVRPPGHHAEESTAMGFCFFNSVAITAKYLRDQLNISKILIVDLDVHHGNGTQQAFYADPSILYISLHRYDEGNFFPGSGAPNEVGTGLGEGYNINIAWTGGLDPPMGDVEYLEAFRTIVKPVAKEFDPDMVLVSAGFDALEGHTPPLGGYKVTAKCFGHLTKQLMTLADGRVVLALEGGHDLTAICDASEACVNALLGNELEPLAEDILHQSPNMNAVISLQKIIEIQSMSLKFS

HDAC4 = molecular target: T7, HDAC4 (Homo sapiens, UniProt P56524); assay: HDAC assay (Eurofins); format: biochemical
T7 construct: purchased Eurofins (contracted assay service)
T7 sequence (P56524 whole entry): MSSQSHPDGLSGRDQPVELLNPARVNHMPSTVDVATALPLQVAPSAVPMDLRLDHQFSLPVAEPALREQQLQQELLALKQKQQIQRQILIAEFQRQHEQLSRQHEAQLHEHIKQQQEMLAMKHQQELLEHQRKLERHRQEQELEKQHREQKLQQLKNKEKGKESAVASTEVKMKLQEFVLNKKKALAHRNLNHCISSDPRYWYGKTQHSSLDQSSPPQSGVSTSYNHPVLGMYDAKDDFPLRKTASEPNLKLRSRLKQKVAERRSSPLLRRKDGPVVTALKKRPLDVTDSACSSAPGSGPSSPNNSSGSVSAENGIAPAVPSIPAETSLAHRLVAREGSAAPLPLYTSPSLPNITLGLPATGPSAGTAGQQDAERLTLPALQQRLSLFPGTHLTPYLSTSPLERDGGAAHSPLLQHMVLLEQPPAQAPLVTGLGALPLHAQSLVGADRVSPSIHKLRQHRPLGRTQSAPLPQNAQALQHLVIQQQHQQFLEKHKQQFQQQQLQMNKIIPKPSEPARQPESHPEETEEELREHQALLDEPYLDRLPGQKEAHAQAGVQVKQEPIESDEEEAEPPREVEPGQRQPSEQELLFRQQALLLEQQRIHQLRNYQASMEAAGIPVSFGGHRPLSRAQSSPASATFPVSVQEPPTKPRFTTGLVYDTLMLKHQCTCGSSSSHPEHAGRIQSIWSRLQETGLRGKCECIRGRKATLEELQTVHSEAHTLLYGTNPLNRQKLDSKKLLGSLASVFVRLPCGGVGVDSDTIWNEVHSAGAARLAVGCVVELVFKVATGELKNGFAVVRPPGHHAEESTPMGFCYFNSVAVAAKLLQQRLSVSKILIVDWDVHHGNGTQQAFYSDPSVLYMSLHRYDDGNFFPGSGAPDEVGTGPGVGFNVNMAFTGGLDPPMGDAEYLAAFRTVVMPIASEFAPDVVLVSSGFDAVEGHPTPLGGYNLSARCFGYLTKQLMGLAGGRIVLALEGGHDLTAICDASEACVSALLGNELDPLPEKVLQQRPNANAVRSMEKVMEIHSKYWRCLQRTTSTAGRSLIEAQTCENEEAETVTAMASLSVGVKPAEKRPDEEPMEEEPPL

[2] = RAG-2, mouse, plasma, intraperitoneal, read-out: plasmatic concentration, Mean
[3] = RAG-2, mouse, plasma, ip, mice, NCA
[4] = RAG-2, mouse, plasma, ip, mice, NCA, read-out: Norm. Vz/F

SMILES | Cl/F ([1]; mice, NCA, mean) | concentration at 0.25 h [1, 2] | concentration at 1 h [1, 2] | concentration at 2 h [1, 2] | concentration at 4 h [1, 2] | concentration at 8 h [1, 2] | CL/F [1, 3] | Vd/F [1, 4] | clearance ([1]; mice) | pIC50 (HDAC8) | inhibition at 10 µM (HDAC8) | inhibition at 10 µM (BAZ2B) | inhibition at 10 µM (SMARCA4/BRG1) | inhibition at 10 µM (CeCR2) | inhibition at 10 µM (CREBBP) | pIC50 (HDAC9) | inhibition at 10 µM (HDAC9) | pIC50 (HDAC4) | inhibition at 10 µM (HDAC4) | other results
COc1cc2nc(-c3ccc(C)o3)cc(NCC3CCN(c4ncc(C(=O)NO)cn4)CC3)c2cc1OC [CM-444, 2-[4-[[[6,7-dimethoxy-2-(5-methyl-2-furyl)-4-quinolyl]amino]methyl]-1-piperidyl]pyrimidine-5-carbohydroxamic acid] | 0.53 L/h | 916 nM | 203 nM | 27.7 nM | 5 nM | 2.4 nM | 355 mL/min/kg | 262 L/kg | 0.53 lh^−1 | 7.08 | 100% | 0% | 0% | 0% | 0% | 7.05 | 98% | 7.21 | 96% | AUClast ([1]; mice, NCA, mean): 0.91615 µM·h; Vz/F ([1]; mice, NCA, mean): 6.56 L; t½ ([1]; mice, NCA, mean): 8.46 h; concentration at 24 h ([1]; RAG-2, mouse, plasma, intraperitoneal, 24 h, read-out: plasmatic concentration, Mean): 0.9 nM
COc1cc2nc(-c3cc(C)oc3C)cc(NCC3CCN(c4ncc(C(=O)NO)cn4)CC3)c2cc1OC [CM-1758, 2-[4-[[[2-(2,5-dimethyl-3-furyl)-6,7-dimethoxy-4-quinolyl]amino]methyl] -1-piperidyl]pyrimidine-5-carbohydroxamic acid] | 0.26 L/h | 1700 nM | 352 nM | 77.5 nM | 17.1 nM | 4.3 nM | 173 mL/min/kg | 28.6 L/kg | 0.26 lh^−1 | 6.70 | 100% | 0% | 18% | 72% | 6% | 7.04 | 97% | 6.89 | 97% | plasmatic concentration, Mean ([1]; 24 h): BLOQ; AUC(0-t) ([1]; RAG-2, mouse, plasma, ip, mice, NCA, mean): 1.69 µM·h; Vd/F ([1]; RAG-2, mouse, plasma, ip, mice, NCA, mean, read-out: Vz/F): 0.72 L; half-life ([1]; RAG-2, mouse, plasma, ip, mice, NCA, mean, read-out: t½ (converted)): 1.95 h; pIC50 (CeCR2): 6.03
